According to patent US9481688B2, “(Thieno[2,3-b][1,5]benzoxazepin-4-yl)piperazin-1-yl compounds as dual activity H1 inverse agonists/5-HT2A antagonists” (Eli Lilly and Company, priority 2011, dated 2016):
pEC50, pIC50, pKi: −log10 of the molar value. Where a name gives a salt, the structure may show the parent alone.

Assays:
[1] = biological target: recombinant 5-HT2A receptor (human) (Homo sapiens (Human), UniProt P28223); experiment: 5-HT2A competition binding assay ([3H]-Ketanserin, SPA); details: dihydrochloride
Experimental: [^3H]-Ketanserin binding experiments are carried out in SPA 96-well format. Membranes used in this assay are prepared from AV-12 cells stably expressing recombinant 5-HT2A receptor (human). The incubation is initiated by the addition of a mixture of WGA YSi SPA beads (1 mg/well, Perkin Elmer (MA, USA), RPNQ0011) and 2 μg membranes to assay buffer (67 mM Tris, 0.5 mM EDTA; pH 7.6) containing 3.1 nM [^3H]-Ketanserin and varying concentrations of the test compound (10 point concentration response curves). Non-specific binding is determined in the presence of 20 μM 1-(1-Naphthyl) piperazine. Samples are incubated for 4 hr. at room temperature (22° C.) and then read in a Microbeta Trilux.
Curves are evaluated using a 4-parameter logistic nonlinear equation to obtain the concentration of competitor causing 50% inhibition of radioligand binding (IC50). Equilibrium dissociation constants (Ki) are calculated according to the equation Ki=IC50/(1+L/Kd), where L equals the concentration of radioligand used in the experiment and Kd equals the equilibrium dissociation constant of the radioligand for the receptor, determined from standard saturation analysis or homologous competition experiments. Reported values for Ki, where n values are indicated, are shown as geometric mean±the standard error of the mean (SEM), with the number of replicate determinations indicated by n. […]

5-HT2B = 5-HT2B (Homo sapiens (Human), UniProt P41595); experiment: 5-HT2B agonist functional activity; format: biochemical
Description: (§1) Further, the compounds of the invention may be tested in binding assays and functional activity assays by well known methods for other physiologically important receptors such as, but not limited to, the hERG channel, other serotonin receptors (specifically 5-HT1B, 5-HT1D, receptors, lack of agonist activity at 5-HT2B receptors, 5-HT2C, 5-HT5, 5-HT6, and 5-HT7 receptors), dopaminergic receptors (specifically D1, D2, and D3), GABAA receptors, adrenergic receptors and monoamine transporters.

[2] = biological target: recombinant 5-HT2C receptor (human) (Homo sapiens (Human), UniProt P28335); experiment: 5-HT2C competition binding assay ([125I]-DOI, SPA); details: dihydrochloride
Experimental: [^125I]-(±)DOI binding experiments are carried out in SPA 96-well format. Membranes used in this assay are prepared from AV-12 cells stably expressing recombinant 5-HT2C receptor (human). The incubation is initiated by the addition of a mixture of WGA PVT SPA beads (0.5 mg/well, Perkin Elmer (MA, USA), RPNQ0001) and 2.5 μg membranes to assay buffer (50 mM Tris-HCl, 10 mM MgCl2, 0.5 mM EDTA, 10 μM pargyline, 0.1% ascorbic acid, pH7.4) containing 0.2 nM [[^125I]-(±)DOI and varying concentrations of the test compound (10 point concentration response curves). Non-specific binding is determined in the presence of 20 μM 1-(1-Naphthyl) piperazine. Samples are incubated for 4 hr. at room temperature (22° C.) and then read in a Microbeta Trilux.
Curves are evaluated using a 4-parameter logistic nonlinear equation to obtain the concentration of competitor causing 50% inhibition of radioligand binding (IC50). Equilibrium dissociation constants (Ki) are calculated according to the equation Ki=IC50/(1+L/Kd), where L equals the concentration of radioligand used in the experiment and Kd equals the equilibrium dissociation constant of the radioligand for the receptor, determined from standard saturation analysis or homologous competition experiments. […]

native GABAA receptors = experiment: GABAA antagonism using native receptors in primary neuronal cultures (FLIPR calcium flux); format: cell-based, rat; details: against 10 μM GABA
Experimental: Activity of compounds on native GABAA receptors is evaluated by monitoring calcium fluxes using a 96 well format FLIPR® system (Fluorometric Imaging Plate Reader (FLIPR®, Molecular Devices). Briefly, cortical embryonic neurons are dissociated from E18 rat embryos and plated at optimum density into black-walled, transparent bottom poly-D-lysine coated 96-well FLIPR® plates. After loading the cells with a calcium sensitive dye (Fluo4-AM, Molecular Devices), the cells are bathed in a solution containing low chloride (chloride replaced by gluconate). Under these conditions activation of GABAA receptors causes an efflux of chloride ions (in the direction of the chemical gradient), which results in membrane depolarization and consequently activation of voltage gated calcium channels (VGCCs). Calcium influx through VGCCs is recorded and analysed offline using the FLIPR® system. For a pharmacological validation of the assay, concentration response curves (CRC) are recorded for the standard agonist (GABA) and standard antagonist (Gabazine). […]
The antagonist effects of compounds are quantified using 10-point dose response curves by comparing the peak fluorescent responses to the agonist GABA in the presence and absence of compound. […] Antagonist effects are calculated as a percent of the assay window. […]

hERG channel = hERG channel (Homo sapiens (Human), UniProt Q12809); experiment: hERG channel assay
Description: as §1

Dopamine D1 = Dopamine D1 (Homo sapiens (Human), UniProt P21728); experiment: Dopamine D1 binding
Description: as §1

Dopamine D2 = Dopamine D2 (Homo sapiens (Human), UniProt P14416); experiment: Dopamine D2 binding; details: dihydrochloride
Description: as §1

5-HT1B = 5-HT1B (Homo sapiens (Human), UniProt P28222); experiment: 5-HT1B binding
Description: as §1

5-HT1D = 5-HT1D (Homo sapiens (Human), UniProt P28221); experiment: 5-HT1D binding
Description: as §1

5-HT6 = 5-HT6 (Homo sapiens (Human), UniProt P50406); experiment: 5-HT6 binding
Description: as §1

5-HT7 = 5-HT7 (Homo sapiens (Human), UniProt P34969); experiment: 5-HT7 binding
Description: as §1

[3] = Plasma clearance in dog (intravenous); format: in vivo; details: male, Beagle, 1 mg/kg
Experimental: Male Beagle dogs (body weight range 10-12 kg) are obtained from Marshall Bioresources, USA. Test compound is administered intravenously in solution (1 mL/kg) in 20% Captisol® in 22.5 mM phosphate buffer, pH 2, at a final drug concentration of 1.0 mg/mL (free base equivalents). Blood samples are obtained from the jugular vein over 24 hr. Samples of plasma are obtained by centrifugation and stored frozen (−20° C.) prior to analysis.
Frozen plasma samples are thawed to room temperature for bioanalysis of concentrations of test compound. A related internal standard compound in acetonitrile/methanol (1:1, v/v) is added to all samples of plasma (1:1, v/v). The samples are centrifuged to remove precipitated protein prior to analysis. The supernatants are analysed by injection and rapid gradient elution on a Javelin Betasil C18 column (20×2.1 mm cartridge, Mobile phase A: Water/1 M NH4HCO3, 2000:10 v/v, Mobile Phase B: MeOH/1 M NH4HCO3, 2000:10 v/v). The eluted analytes are detected by LC-MS-MS analysis using a Sciex API 4000 triple quadrupole mass spectrometer. Concentrations of compound are determined from standards prepared and analysed under identical conditions. Clearance is calculated using non-compartmental analysis in Watson 7.4, Thermo Fisher Scientific, Inc.

Chain of Dopamine D2 (P14416 whole entry): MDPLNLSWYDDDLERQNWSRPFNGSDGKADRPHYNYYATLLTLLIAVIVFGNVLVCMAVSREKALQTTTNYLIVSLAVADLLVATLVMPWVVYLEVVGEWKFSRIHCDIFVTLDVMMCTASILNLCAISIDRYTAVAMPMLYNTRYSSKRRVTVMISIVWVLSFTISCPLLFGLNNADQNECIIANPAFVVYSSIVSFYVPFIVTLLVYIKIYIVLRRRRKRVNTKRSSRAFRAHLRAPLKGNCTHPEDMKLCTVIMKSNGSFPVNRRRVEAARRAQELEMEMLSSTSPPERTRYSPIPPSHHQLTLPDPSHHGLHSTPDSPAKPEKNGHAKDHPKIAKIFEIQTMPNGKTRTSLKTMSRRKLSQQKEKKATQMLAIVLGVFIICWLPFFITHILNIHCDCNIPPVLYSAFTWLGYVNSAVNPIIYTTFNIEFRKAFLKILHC
Chain of recombinant 5-HT2C receptor (human) (P28335 whole entry, looked up): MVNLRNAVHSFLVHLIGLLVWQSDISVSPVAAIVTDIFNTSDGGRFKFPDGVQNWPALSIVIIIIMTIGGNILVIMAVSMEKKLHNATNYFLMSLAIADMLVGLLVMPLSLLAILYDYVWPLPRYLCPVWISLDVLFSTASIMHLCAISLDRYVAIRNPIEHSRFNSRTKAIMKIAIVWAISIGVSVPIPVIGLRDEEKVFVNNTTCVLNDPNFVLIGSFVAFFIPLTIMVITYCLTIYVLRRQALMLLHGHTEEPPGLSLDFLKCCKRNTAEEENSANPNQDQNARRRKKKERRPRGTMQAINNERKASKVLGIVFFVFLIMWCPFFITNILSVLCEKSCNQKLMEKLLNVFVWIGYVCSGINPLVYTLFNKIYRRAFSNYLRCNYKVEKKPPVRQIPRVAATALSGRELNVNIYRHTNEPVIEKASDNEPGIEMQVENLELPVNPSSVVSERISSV
Chain of 5-HT7 (P34969 whole entry, species assumed): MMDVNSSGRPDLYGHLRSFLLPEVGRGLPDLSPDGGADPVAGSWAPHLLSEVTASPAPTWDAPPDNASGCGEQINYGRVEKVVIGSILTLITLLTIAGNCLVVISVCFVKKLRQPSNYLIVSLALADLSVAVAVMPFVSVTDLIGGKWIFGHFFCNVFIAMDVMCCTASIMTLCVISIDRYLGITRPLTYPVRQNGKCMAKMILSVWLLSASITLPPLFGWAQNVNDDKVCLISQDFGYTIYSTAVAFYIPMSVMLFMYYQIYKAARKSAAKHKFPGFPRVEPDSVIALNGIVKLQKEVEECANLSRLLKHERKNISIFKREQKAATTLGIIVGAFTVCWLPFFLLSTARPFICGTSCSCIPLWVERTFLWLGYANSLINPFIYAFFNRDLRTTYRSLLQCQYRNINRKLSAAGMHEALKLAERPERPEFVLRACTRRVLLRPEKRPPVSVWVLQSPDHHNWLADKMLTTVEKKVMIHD
Chain of 5-HT2B (P41595 whole entry, species assumed): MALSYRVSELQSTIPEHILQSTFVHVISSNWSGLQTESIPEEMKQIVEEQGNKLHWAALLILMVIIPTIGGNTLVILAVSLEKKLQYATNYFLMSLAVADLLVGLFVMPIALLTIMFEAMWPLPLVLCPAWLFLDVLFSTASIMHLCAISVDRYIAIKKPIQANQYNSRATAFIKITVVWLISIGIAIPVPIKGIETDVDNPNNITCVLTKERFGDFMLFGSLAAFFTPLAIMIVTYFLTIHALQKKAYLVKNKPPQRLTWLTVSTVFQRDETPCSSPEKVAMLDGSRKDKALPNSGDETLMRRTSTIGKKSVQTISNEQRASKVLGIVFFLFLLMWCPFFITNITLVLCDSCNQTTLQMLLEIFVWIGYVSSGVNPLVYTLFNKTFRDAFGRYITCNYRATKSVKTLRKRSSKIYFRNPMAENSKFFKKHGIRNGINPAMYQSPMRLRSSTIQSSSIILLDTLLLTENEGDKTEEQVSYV
Chain of 5-HT6 (P50406 whole entry, species assumed): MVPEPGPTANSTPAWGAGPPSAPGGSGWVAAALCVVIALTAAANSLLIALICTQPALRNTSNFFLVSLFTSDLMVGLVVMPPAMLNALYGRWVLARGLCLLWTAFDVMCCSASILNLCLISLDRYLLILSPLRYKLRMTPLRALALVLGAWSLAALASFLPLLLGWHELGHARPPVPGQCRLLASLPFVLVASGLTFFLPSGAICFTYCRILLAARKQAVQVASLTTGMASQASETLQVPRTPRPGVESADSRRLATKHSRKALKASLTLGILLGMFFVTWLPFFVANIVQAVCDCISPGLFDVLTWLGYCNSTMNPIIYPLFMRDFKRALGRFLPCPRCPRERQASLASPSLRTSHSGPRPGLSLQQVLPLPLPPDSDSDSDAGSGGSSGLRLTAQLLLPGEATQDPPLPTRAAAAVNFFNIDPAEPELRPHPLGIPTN
Chain of 5-HT1D (P28221 whole entry, species assumed): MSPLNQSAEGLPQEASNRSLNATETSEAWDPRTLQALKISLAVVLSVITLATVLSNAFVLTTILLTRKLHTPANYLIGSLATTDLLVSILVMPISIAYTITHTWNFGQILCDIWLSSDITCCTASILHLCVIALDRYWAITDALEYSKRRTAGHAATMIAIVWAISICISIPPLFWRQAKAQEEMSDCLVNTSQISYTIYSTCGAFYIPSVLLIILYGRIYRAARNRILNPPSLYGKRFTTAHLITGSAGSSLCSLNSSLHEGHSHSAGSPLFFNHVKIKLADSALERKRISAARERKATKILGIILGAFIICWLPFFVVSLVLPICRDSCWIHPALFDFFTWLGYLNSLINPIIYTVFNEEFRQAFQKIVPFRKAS
Chain of hERG channel (Q12809 whole entry): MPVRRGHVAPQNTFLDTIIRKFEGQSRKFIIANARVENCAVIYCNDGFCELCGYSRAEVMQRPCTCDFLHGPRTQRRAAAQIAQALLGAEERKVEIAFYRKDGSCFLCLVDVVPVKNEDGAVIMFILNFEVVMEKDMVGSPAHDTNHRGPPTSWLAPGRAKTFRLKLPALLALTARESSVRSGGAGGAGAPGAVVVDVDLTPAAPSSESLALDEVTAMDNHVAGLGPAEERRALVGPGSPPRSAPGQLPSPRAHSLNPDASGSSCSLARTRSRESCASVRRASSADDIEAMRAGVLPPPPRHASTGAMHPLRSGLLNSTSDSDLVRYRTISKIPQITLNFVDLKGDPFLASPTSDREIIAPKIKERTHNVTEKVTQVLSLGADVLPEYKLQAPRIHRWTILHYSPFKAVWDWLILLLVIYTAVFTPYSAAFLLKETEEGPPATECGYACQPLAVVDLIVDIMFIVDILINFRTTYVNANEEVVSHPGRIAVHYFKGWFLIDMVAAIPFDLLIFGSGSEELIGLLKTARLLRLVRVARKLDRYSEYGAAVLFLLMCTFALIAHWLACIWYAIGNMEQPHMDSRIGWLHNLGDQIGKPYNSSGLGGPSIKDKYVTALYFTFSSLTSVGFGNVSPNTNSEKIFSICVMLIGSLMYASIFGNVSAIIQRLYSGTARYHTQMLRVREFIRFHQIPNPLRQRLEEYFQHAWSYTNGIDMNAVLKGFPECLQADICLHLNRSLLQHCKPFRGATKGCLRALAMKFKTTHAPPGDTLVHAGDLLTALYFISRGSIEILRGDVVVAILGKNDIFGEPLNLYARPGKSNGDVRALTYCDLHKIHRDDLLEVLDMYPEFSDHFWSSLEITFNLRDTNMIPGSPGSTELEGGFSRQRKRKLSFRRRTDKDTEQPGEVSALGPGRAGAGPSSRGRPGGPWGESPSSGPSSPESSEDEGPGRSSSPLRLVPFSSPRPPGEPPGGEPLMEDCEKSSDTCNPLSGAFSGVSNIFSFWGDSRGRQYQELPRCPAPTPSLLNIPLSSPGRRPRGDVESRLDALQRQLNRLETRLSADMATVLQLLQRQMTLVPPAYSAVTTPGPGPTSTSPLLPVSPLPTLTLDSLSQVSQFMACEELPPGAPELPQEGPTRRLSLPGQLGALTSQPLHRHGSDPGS
Chain of Dopamine D1 (P21728 whole entry): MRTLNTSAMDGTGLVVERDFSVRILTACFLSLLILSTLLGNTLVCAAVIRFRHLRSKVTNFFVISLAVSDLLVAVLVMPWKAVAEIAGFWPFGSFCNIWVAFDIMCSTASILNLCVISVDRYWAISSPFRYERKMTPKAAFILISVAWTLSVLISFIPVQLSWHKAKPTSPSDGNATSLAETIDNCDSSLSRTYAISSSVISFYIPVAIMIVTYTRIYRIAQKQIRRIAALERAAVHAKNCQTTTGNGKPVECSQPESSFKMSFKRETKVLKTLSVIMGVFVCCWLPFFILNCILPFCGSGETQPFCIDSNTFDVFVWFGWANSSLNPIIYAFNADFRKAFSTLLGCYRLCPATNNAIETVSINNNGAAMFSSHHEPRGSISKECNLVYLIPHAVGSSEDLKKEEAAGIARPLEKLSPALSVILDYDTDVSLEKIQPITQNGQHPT
Chain of 5-HT1B (P28222 whole entry, species assumed): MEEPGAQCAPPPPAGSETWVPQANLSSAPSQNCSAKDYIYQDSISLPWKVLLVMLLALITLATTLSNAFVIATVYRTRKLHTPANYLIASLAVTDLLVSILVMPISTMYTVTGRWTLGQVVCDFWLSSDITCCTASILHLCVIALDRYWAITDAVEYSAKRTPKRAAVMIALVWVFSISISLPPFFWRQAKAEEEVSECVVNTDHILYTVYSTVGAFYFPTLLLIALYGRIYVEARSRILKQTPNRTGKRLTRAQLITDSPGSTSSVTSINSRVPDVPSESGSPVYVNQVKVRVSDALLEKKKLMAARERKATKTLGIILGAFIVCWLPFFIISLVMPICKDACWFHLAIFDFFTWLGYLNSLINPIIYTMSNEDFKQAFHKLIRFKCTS

Question: With `Cc1ccc2c(c1)Oc1sc(Cl)cc1C(N1CCN(CC(C)(C)C(=O)O)CC1)=N2` [Example 3, 3-[4-(2-chloro-8-methyl-thieno[2,3-b][1,5]benzoxazepin-4-yl)piperazin-1-yl]-2,2-dimethyl-propanoic acid dihydrochloride] as the molecule, how does the pKi [1] read?
Answer: 8.15

Question: What about the pEC50 (5-HT2B) of the same molecule?
Answer: < 5.00

Question: What about the pKi [2] of the same molecule?
Answer: 6.48

Question: What about the pIC50 (native GABAA receptors) of the same molecule?
Answer: < 4.00

Question: What about the “hERG Channel” value (hERG channel) of the same molecule?
Answer: >100 µM

Question: And the pKi (Dopamine D1)?
Answer: 6.23

Question: And the pKi (Dopamine D2)?
Answer: < 5.34

Question: And the pKi (5-HT1B)?
Answer: < 5.25

Question: What about the pKi (5-HT1D) of the same molecule?
Answer: < 5.40

Question: And the pKi (5-HT6)?
Answer: < 5.23

Question: What about the pKi (5-HT7) of the same molecule?
Answer: < 5.69

Question: And the clearance [3]?
Answer: 3.2 mL/min/kg
